Laboratory results as given in patent US12435080B2, “sGC stimulators” (Tisento Therapeutics Inc., priority 2016, dated 2025).
“And” between values parts separate entries of the source, which are not always exact repeats. Equal values may be shown once.

Target: T1, sGC enzyme (Homo sapiens, UniProt Q02108+Q02153)
T1 construct: incorporated into these cells detect cGMP formed by the compounds stimulating the sGC enzyme; host or cells: HEK293 cells stably expressing GloSensor 40F cGMP biosensor
T1 sequence (Q02153 1-619): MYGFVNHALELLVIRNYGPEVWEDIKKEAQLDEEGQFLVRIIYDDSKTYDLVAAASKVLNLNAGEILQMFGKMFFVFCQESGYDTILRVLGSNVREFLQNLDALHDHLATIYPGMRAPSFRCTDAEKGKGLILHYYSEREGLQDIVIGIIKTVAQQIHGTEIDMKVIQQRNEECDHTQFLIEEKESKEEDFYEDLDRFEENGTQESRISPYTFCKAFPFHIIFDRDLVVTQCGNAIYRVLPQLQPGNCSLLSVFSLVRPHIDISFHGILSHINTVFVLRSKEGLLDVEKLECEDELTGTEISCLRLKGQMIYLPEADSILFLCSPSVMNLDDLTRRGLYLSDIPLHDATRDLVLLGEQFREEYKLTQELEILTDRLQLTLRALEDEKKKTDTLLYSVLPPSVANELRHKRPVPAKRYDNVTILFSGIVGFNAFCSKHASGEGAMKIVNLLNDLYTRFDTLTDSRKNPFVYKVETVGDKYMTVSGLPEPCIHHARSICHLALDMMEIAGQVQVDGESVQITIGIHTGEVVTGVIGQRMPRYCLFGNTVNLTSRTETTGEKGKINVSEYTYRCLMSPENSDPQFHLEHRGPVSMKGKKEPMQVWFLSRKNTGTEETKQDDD
T1 sequence (Q02108 1-690): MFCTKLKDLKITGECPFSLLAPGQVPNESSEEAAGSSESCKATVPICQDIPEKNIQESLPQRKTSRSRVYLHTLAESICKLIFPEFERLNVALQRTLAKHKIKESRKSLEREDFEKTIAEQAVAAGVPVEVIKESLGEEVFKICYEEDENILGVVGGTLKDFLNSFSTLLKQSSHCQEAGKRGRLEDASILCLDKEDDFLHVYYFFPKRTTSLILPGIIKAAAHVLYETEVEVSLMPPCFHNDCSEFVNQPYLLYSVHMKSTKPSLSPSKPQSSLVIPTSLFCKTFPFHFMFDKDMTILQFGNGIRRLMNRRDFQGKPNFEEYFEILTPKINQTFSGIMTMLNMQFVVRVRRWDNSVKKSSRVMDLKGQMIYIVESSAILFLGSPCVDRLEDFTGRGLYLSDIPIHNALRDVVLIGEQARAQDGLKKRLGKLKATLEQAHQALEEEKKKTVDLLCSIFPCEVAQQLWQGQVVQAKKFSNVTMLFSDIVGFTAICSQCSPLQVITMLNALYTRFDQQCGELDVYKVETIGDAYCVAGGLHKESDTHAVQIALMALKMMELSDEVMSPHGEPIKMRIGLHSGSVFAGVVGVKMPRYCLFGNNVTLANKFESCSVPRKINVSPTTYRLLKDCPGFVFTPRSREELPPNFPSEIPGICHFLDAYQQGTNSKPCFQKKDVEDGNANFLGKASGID
Assay: cGMP GloSensor cell-based assay, 384-well format
Conditions: HEK293 cells expressing GloSensor 40F cGMP; 10 μM DETA-NONOate; normalized to 30 μM Compound Y; compounds in Table IA; read-out: Glo-sensor AbsEC50
Excerpt: Human embryonic kidney cells (HEK293) cells expressing GloSensor™ 40F cGMP (Part No: CS182801, Promega) were used to evaluate the activity of test compounds. The luminescent biosensors (engineered luciferase) that were incorporated into these cells detect cGMP formed by the compounds stimulating the sGC enzyme and emit luminescence.
cGMP GloSensor cells were maintained in Dulbecco's Modification of Eagle's Medium (DMEM) supplemented with fetal bovine serum (FBS, 10% final) and hygromycine (200 ug/ml). […] Cells were incubated overnight at 37° C. in a humidified chamber with 5% CO2. The next day, medium was removed and cells were replaced with 40 ul/well of GloSensor™, 2 mM (Promega Cat No E1291). Cells were treated for 90 minutes at 25° C. to allow the substrate to equilibrate in the cells. […] For endpoint SAR screening, data were collected after 55 min incubation at room temperature.
Data were fit using a 4-parameter fit (log(agonist) vs. response—variable slope) using GraphPad Prism Software v.5. n=2 for all compounds. […] Compounds failing to elicit a minimum response of 50% are reported as >30 μM or ND.

SMILES	EC50
Fc1ccccc1Cn1nc(-c2nc(C3CC(F)(F)C3)n[nH]2)c2cccnc21 [Compound I-77, 3-(3-(3,3-Difluorocyclobutyl)-1H-1,2,4-triazol-5-yl)-1-(2-fluorobenzyl)-1H-pyrazolo[3,4-b]pyridine]	100 to 1000 nM
Fc1cccc(Cc2nn(-c3nc(C(F)(F)F)n[nH]3)c3cccnc23)c1 [Compound I-120, 3-(3-Fluorobenzyl)-1-(3-(trifluoromethyl)-1H-1,2,4-triazol-5-yl)-1H-pyrazolo[4,3-b]pyridine]	100 to 1000 nM
Fc1ccccc1Cn1nc(-c2nc(C(F)(F)F)n[nH]2)c2cnccc21 [Compound I-43, 1-(2-Fluorobenzyl)-3-(3-(trifluoromethyl)-1H-1,2,4-triazol-5-yl)-1H-pyrazolo[4,3-c]pyridine]	> 1000 nM
NC(=O)c1n[nH]c(-c2nn(Cc3ccccc3F)c3ncccc23)n1 [Compound I-40, 5-(1-(2-fluorobenzyl)-1H-pyrazolo[3,4-b]pyridin-3-yl)-1H-1,2,4-triazole-3-carboxamide]	100 to 1000 nM
C=COCc1n[nH]c(-c2nn(Cc3ccccc3F)c3ncccc23)n1 [Compound I-117]	100 to 1000 nM
O=C1CCC(=O)N1Cc1n[nH]c(-c2nn(Cc3ccccc3F)c3ncccc23)n1 [Compound I-125, 1-((5-(1-(2-fluorobenzyl)-1H-pyrazolo[3,4-b]pyridin-3-yl)-1H-1,2,4-triazol-3-yl)methyl)pyrrolidine-2,5-dione]	100 to 1000 nM
NCc1n[nH]c(-c2nn(Cc3ccccc3F)c3ncccc23)n1 [Compound I-115, (5-(1-(2-fluorobenzyl)-1H-pyrazolo[3,4-b]pyridin-3-yl)-1H-1,2,4-triazol-3-yl)methanamine]	100 to 1000 nM
Fc1ccccc1Cn1nc(-c2nc(CCCCl)n[nH]2)c2cccnc21 [Compound I-69, 3-(3-(3-chloropropyl)-1H-1,2,4-triazol-5-yl)-1-(2-fluorobenzyl)-1H-pyrazolo[3,4-b]pyridine]	100 to 1000 nM
FCCN1CC(c2n[nH]c(-c3nn(Cc4ccccc4F)c4ncccc34)n2)C1 [Compound I-97, 1-(2-Fluorobenzyl)-3-(3-(1-(2-fluoroethyl)azetidin-3-yl)-1H-1,2,4-triazol-5-yl)-1H-pyrazolo[3,4-b]pyridine]	100 to 1000 nM
O=C(CC(F)(F)F)Nc1n[nH]c(-c2nn(Cc3ccccc3F)c3ncccc23)n1 [Compound I-126]	> 1000 nM
CC1(c2n[nH]c(-c3nn(Cc4ccccc4F)c4ncccc34)n2)COC1 [Compound I-70, 1-(2-fluorobenzyl)-3-(3-(3-methyloxetan-3-yl)-1H-1,2,4-triazol-5-yl)-1H-pyrazolo[3,4-b]pyridine]	100 to 1000 nM and > 1000 nM
Fc1ccccc1Cn1nc(-c2nc(C(F)(F)F)n[nH]2)c2nccnc21 [Compound I-98, 1-(2-Fluorobenzyl)-3-(3-(trifluoromethyl)-1H-1,2,4-triazol-5-yl)-1H-pyrazolo[3,4-b]pyrazine]	> 1000 nM
Fc1ccccc1Cn1nc(-c2nc(C3(C(F)(F)F)CC3)n[nH]2)c2cccnc21 [Compound I-59, 1-(2-fluorobenzyl)-3-(3-(1-(trifluoromethyl)cyclopropyl)-1H-1,2,4-triazol-5-yl)-1H-pyrazolo[3,4-b]pyridine]	100 to 1000 nM
Fc1ccccc1Cn1nc(-c2nc(C3(c4ccccc4)CC3)n[nH]2)c2cccnc21 [Compound I-81, 1-(2-Fluorobenzyl)-3-(3-(1-phenylcyclopropyl)-1H-1,2,4-triazol-5-yl)-1H-pyrazolo[3,4-b]pyridine]	> 1000 nM
Fc1ccccc1Cn1nc(-c2nc(N3CC(F)(F)C3)n[nH]2)c2cccnc21 [Compound I-88, 3-(3-(3,3-difluoroazetidin-1-yl)-1H-1,2,4-triazol-5-yl)-1-(2-fluorobenzyl)-1H-pyrazolo[3,4-b]pyridine]	> 1000 nM
Fc1ccccc1Cn1nc(-c2nc(C(F)(F)Cl)n[nH]2)c2cccnc21 [Compound I-65, 3-(3-(Chlorodifluoromethyl)-1H-1,2,4-triazol-5-yl)-1-(2-fluorobenzyl)-1H-pyrazolo[3,4-b]pyridine]	< 100 nM
Fc1ccccc1Cn1nc(-c2nc(C(F)(F)F)n[nH]2)c2ncccc21 [Compound I-35, 1-(2-Fluorobenzyl)-3-(3-(trifluoromethyl)-1H-1,2,4-triazol-5-yl)-1H-pyrazolo[4,3-b]pyridine]	> 1000 nM
NC1(c2n[nH]c(-c3nn(Cc4ccccc4F)c4ncccc34)n2)COC1 [Compound I-79, 3-(5-(1-(2-fluorobenzyl)-1H-pyrazolo[3,4-b]pyridin-3-yl)-1H-1,2,4-triazol-3-yl)oxetan-3-amine]	> 1000 nM

Continued, values first:

EC50	SMILES
< 100 nM	FCc1n[nH]c(-c2nn(Cc3ccccc3F)c3ncccc23)n1 [Compound I-58, 1-(2-Fluorobenzyl)-3-(3-(fluoromethyl)-1H-1,2,4-triazol-5-yl)-1H-pyrazolo[3,4-b]pyridine]
< 100 nM	OC1(c2n[nH]c(-c3nn(Cc4ccccc4F)c4ncccc34)n2)CC1 [Compound I-104, 1-(5-(1-(2-Fluorobenzyl)-1H-pyrazolo[3,4-b]pyridin-3-yl)-1H-1,2,4-triazol-3-yl)cyclopropanol]
< 100 nM	CC(F)(F)c1n[nH]c(-c2nn(Cc3ccccc3F)c3ncccc23)n1 [Compound I-36, 3-(3-(1,1-difluoroethyl)-1H-1,2,4-triazol-5-yl)-1-(2-fluorobenzyl)-1H-pyrazolo[3,4-b]pyridine]
< 100 nM	CC(O)c1n[nH]c(-c2nn(Cc3ccccc3F)c3ncccc23)n1 (stereo not shown) [Compound I-107, 1-(5-(1-(2-Fluorobenzyl)-1H-pyrazolo[3,4-b]pyridin-3-yl)-1H-1,2,4-triazol-3-yl)ethanol]
< 100 nM	Cc1ncc(Cn2nc(-c3nc(C(F)(F)F)n[nH]3)c3ccc(Cl)cc32)cn1 [Compound I-22, 6-Chloro-1-((2-methylpyrimidin-5-yl)methyl)-3-(3-(trifluoromethyl)-1H-1,2,4-triazol-5-yl)-1H-indazole]
< 100 nM	Fc1ccc(F)c(Cn2nc(-c3nc(C(F)(F)F)n[nH]3)c3cccnc32)c1 [Compound I-14, 1-(2,5-Difluorobenzyl)-3-(3-(trifluoromethyl)-1H-1,2,4-triazol-5-yl)-1H-pyrazolo[3,4-b]pyridine]
< 100 nM	Fc1cccc(F)c1Cn1nc(-c2nc(C(F)(F)F)n[nH]2)c2cccnc21 [Compound I-42]
< 100 nM	CC1(c2n[nH]c(-c3nn(Cc4ccccc4F)c4ncccc34)n2)CC1 [Compound I-63, 1-(2-Fluorobenzyl)-3-(3-(1-methylcyclopropyl)-1H-1,2,4-triazol-5-yl)-1H-pyrazolo[3,4-b]pyridine]
< 100 nM	FC(F)(F)c1n[nH]c(-c2nn(Cc3cncnc3)c3cc(Cl)ccc23)n1 [Compound I-16, 6-Chloro-1-(pyrimidin-5-ylmethyl)-3-(3-(trifluoromethyl)-1H-1,2,4-triazol-5-yl)-1H-indazole]

Same assay, conditions: HEK293 cells expressing GloSensor 40F cGMP; 10 μM DETA-NONOate; normalized to 30 μM Compound Y; compounds in Table IB; read-out: Glo-sensor Abs EC50

EC50	SMILES
100 to 1000 nM	FC(F)(F)c1n[nH]c(-c2nc(CCC(F)(F)C(F)(F)F)n3ncccc23)n1 [Compound I-18, 7-(3,3,4,4,4-pentafluorobutyl)-5-(3-(trifluoromethyl)-1H-1,2,4-triazol-5-yl)imidazo[1,5-b]pyridazine]
